Laboratory results: the supplement of paper PMC10307832

Experiments:
Assay in all cases: relative viability (nuclei count vs DMSO), 5 days (fraction); higher = more cells survive
[1] = tested on: HOP-62
Outline: (§1)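 Values are medians from duplicate plates. Each reflects relative viability, defined as the nuclei count of treated wells over that of vehicle wells. Lung cancer cell lines in 1536-well plates were pin-tool dosed one day after seeding with one drug alone or with a fixed anchor-drug dose plus five library-drug doses (not always all listed) in √10 steps, then fixed, stained and imaged at 4× after 5 days.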

[2] = tested on: LXF-289
Outline: as §1

[3] = tested on: EKVX
Outline: as §1

[4] = tested on: NCI-H1563
Outline: as §1

[5] = tested on: NCI-H1666
Outline: as §1

[6] = tested on: NCI-H2405
Outline: as §1

[7] = tested on: UMC-11
Outline: as §1

[8] = tested on: BEN
Outline: as §1

[9] = tested on: HCC-827
Outline: as §1

[10] = tested on: NCI-H838
Outline: as §1

[11] = tested on: EPLC-272H
Outline: as §1

[12] = tested on: LU99A
Outline: as §1

[13] = tested on: ABC-1
Outline: as §1

[14] = tested on: NCI-H3122
Outline: as §1

[15] = tested on: NCI-H727
Outline: as §1

[16] = tested on: NCI-H23
Outline: as §1

[17] = tested on: SK-MES-1
Outline: as §1

[18] = tested on: NCI-H358
Outline: as §1

[19] = tested on: NCI-H1975
Outline: as §1

[20] = tested on: NCI-H520
Outline: as §1

[21] = tested on: NCI-H322M
Outline: as §1

Work on `COCC1(CO)C(=O)C2CCN1CC2` (centres undefined) [PRIMA-1MET] + C[C@]1(O)C[C@@H](c2nc(-c3ccc4ccc(-c5ccccc5)nc4c3)c3c(N)nccn32)C1 [Linsitinib] (partner 1 µM) yielded a relative viability ([1]; first compound 0.2 µM) of 1.08, a relative viability ([1]; first compound 0.6325 µM) of 0.976 and a relative viability ([1]; first compound 2 µM) of 0.9. It also gave a relative viability ([1]; first compound 6.325 µM) of 0.987, a relative viability ([1]; first compound 20 µM) of 0.746 and a relative viability ([2]; first compound 0.2 µM) of 1.02. For the same compound, the relative viability ([2]; first compound 0.6325 µM) was 0.958, the relative viability ([2]; first compound 2 µM) was 1.04 and the relative viability ([2]; first compound 6.325 µM) was 0.999. For the same compound, the relative viability ([2]; first compound 20 µM) was 0.89, the relative viability ([3]; first compound 0.2 µM) was 0.999 and the relative viability ([3]; first compound 0.6325 µM) was 0.912. It also gave a relative viability ([3]; first compound 2 µM) of 0.707, a relative viability ([3]; first compound 6.325 µM) of 1.03 and a relative viability ([3]; first compound 20 µM) of 0.804. The relative viability ([4]; first compound 0.2 µM) was 1.25, the relative viability ([4]; first compound 0.6325 µM) was 1.14 and the relative viability ([4]; first compound 2 µM) was 1.15. It also gave a relative viability ([4]; first compound 6.325 µM) of 1.23, a relative viability ([4]; first compound 20 µM) of 0.368 and a relative viability ([5]; first compound 0.2 µM) of 0.794. The relative viability ([5]; first compound 0.6325 µM) was 0.781, the relative viability ([5]; first compound 2 µM) was 0.833 and the relative viability ([5]; first compound 6.325 µM) was 0.742. The relative viability ([5]; first compound 20 µM) was 0.134, the relative viability ([6]; first compound 0.2 µM) was 0.635 and the relative viability ([6]; first compound 0.6325 µM) was 1.01. It also gave a relative viability ([6]; first compound 6.325 µM) of 0.727, a relative viability ([6]; first compound 20 µM) of 0.0877 and a relative viability ([7]; first compound 0.2 µM) of 1.11. The relative viability ([7]; first compound 0.6325 µM) was 0.887, the relative viability ([7]; first compound 2 µM) was 1.04 and the relative viability ([7]; first compound 6.325 µM) was 0.97. For the same compound, the relative viability ([7]; first compound 20 µM) was 0.94, the relative viability ([8]; first compound 0.2 µM) was 1.04 and the relative viability ([8]; first compound 0.6325 µM) was 0.765. The relative viability ([8]; first compound 6.325 µM) was 1.08, the relative viability ([8]; first compound 20 µM) was 0.85 and the relative viability ([9]; first compound 0.2 µM) was 1.04. It also gave a relative viability ([9]; first compound 0.6325 µM) of 0.884, a relative viability ([9]; first compound 2 µM) of 0.698 and a relative viability ([9]; first compound 6.325 µM) of 0.962. For the same compound, the relative viability ([9]; first compound 20 µM) was 0.906, the relative viability ([10]; first compound 0.2 µM) was 1.21 and the relative viability ([10]; first compound 0.6325 µM) was 1.02. It also gave a relative viability ([10]; first compound 2 µM) of 1.04, a relative viability ([10]; first compound 6.325 µM) of 1.14 and a relative viability ([10]; first compound 20 µM) of 1.06. For the same compound, the relative viability ([11]; first compound 0.2 µM) was 1.26, the relative viability ([11]; first compound 0.6325 µM) was 1.01 and the relative viability ([11]; first compound 2 µM) was 1.06. For the same compound, the relative viability ([11]; first compound 6.325 µM) was 1.2, the relative viability ([11]; first compound 20 µM) was 0.973 and the relative viability ([12]; first compound 0.2 µM) was 0.629. The relative viability ([12]; first compound 0.6325 µM) was 0.439, the relative viability ([12]; first compound 2 µM) was 0.567 and the relative viability ([12]; first compound 6.325 µM) was 0.526. The relative viability ([12]; first compound 20 µM) was 0.189, the relative viability ([13]; first compound 0.2 µM) was 0.899 and the relative viability ([13]; first compound 0.6325 µM) was 0.958. For the same compound, the relative viability ([13]; first compound 2 µM) was 0.89, the relative viability ([13]; first compound 6.325 µM) was 0.833 and the relative viability ([13]; first compound 20 µM) was 0.519. For the same compound, the relative viability ([14]; first compound 0.2 µM) was 0.853, the relative viability ([14]; first compound 0.6325 µM) was 0.996 and the relative viability ([14]; first compound 2 µM) was 1.04. The relative viability ([14]; first compound 6.325 µM) was 0.945, the relative viability ([14]; first compound 20 µM) was 1.03 and the relative viability ([15]; first compound 0.2 µM) was 0.386. The relative viability ([15]; first compound 0.6325 µM) was 0.247, the relative viability ([15]; first compound 2 µM) was 0.301 and the relative viability ([15]; first compound 6.325 µM) was 0.356. It also gave a relative viability ([15]; first compound 20 µM) of 0.169, a relative viability ([16]; first compound 0.2 µM) of 0.692 and a relative viability ([16]; first compound 0.6325 µM) of 0.443. For the same compound, the relative viability ([16]; first compound 2 µM) was 0.419, the relative viability ([16]; first compound 6.325 µM) was 0.416 and the relative viability ([16]; first compound 20 µM) was 0.113. For the same compound, the relative viability ([17]; first compound 0.2 µM) was 1.13, the relative viability ([17]; first compound 0.6325 µM) was 1.04 and the relative viability ([17]; first compound 2 µM) was 1.02. For the same compound, the relative viability ([17]; first compound 6.325 µM) was 1.05, the relative viability ([17]; first compound 20 µM) was 1.11 and the relative viability ([18]; first compound 0.2 µM) was 0.97. It also gave a relative viability ([18]; first compound 0.6325 µM) of 0.399, a relative viability ([18]; first compound 6.325 µM) of 0.757 and a relative viability ([18]; first compound 20 µM) of 0.0326. For the same compound, the relative viability ([19]; first compound 0.2 µM) was 1.14, the relative viability ([19]; first compound 0.6325 µM) was 0.838 and the relative viability ([19]; first compound 2 µM) was 0.875. The relative viability ([19]; first compound 6.325 µM) was 1, the relative viability ([19]; first compound 20 µM) was 0.826 and the relative viability ([20]; first compound 0.2 µM) was 1.05. The relative viability ([20]; first compound 0.6325 µM) was 1, the relative viability ([20]; first compound 6.325 µM) was 0.869 and the relative viability ([20]; first compound 20 µM) was 0.0887. It also gave a relative viability ([21]; first compound 0.2 µM) of 0.932, a relative viability ([21]; first compound 6.325 µM) of 0.942 and a relative viability ([21]; first compound 20 µM) of 0.862.
